This note sets out measurements from patent US20250052763A1, “COMPOSITIONS AND METHODS FOR IDENTIFYING LIGANDS OF ODORANT RECEPTORS” (Duke University, priority 2021, published 2025).

The subject of the first test is odorant receptors (ORs) expressed by OSNs. Description: pS6-IP-Seq: identification of ORs activated by odorants in vivo. Also on record: species or system mouse. Conditions: odorant at 3 mM; responsive = log2FC>0 and FDR<0.05. As for the experimental part:
Phosphorylated S6 Ribosomal Capture (pS6-IP)
Mice used for pS6-IP were ˜3 weeks old, mixed sex, and littermates. Mice were killed by CO2 asphyxiation and cervical dislocation. Olfactory tissue was rapidly dissected in Buffer B (2.5 mM HEPES KOH pH 7.4, 0.63% glucose, 100 g/mL cycloheximide, 5 mM sodium fluoride, 1 mM sodium orthovanadate, 1 mM sodium pyrophosphate, 1 mM β-glycerophosphate, in Hank's balanced salt solution). Tissue pieces were then minced in 1.35 mL Buffer C (150 mM KCl, 5 mM MgCl2, 10 mM HEPES KOH pH 7.4, […], 2 mM DTT, 100 U/mL RNAsin, 100 µg/mL cycloheximide, protease inhibitor cocktail, 5 mM sodium fluoride, 1 mM sodium orthovanadate, 1 mM sodium pyrophosphate, 1 mM β-glycerophosphate) and subsequently transferred to homogenization tubes for steady homogenization at 250 rpm three times and at 750 rpm nine times at 4° C. […] This solution was mixed and then clarified at a max speed (17,000×g) for 10 min at 4° C. The resulting high-speed supernatant was transferred to a new tube where 20 μL was saved and transferred to a tube containing 350 L buffer RLT. To the remainder of the sample, 1.3 μL of 100 μg/mL cycloheximide, 27 μL of phosphatase inhibitor cocktail (250 mM sodium fluoride, 50 mM sodium orthovanadate, 50 mM sodium pyrophosphate, 50 mM β-glycerophosphate) and 6 μL of anti-pS6 antibody (Cell Signaling D68F8) were added. The sample was gently rotated for 90 min at 4° C. To prepare beads, 100 L of beads (Invitrogen 10002D) was washed three times with 900 L of buffer A (150 mM KCl, 5 mM MgCl2, 10 mM HEPES KOH pH 7.4, 10% NP40, 10% BSA), and once with 500 L of buffer C. Sample homogenate was added to the beads and incubated with gentle rotation for 60 min at 4° C. Following incubation, beads were washed with four times with 700 μL of buffer D (350 mM KCl, 5 mM MgCl2, 10 mM HEPES KOH pH 7.4, 10% NP40, 2 mM DTT, 100 U/mL RNAsin, 100 μg/mL cycloheximide, 5 mM sodium fluoride, 1 mM sodium orthovanadate, 1 mM sodium pyrophosphate, 1 mM β-glycerophosphate). During the final wash, beads were moved to room temperature, wash buffer was removed, and […] of buffer RLT was added. Beads were incubated in buffer RLT for 5 min at room temperature. Buffer RLT containing immunoprecipitated RNA was then eluted and stored at −80° C. until clean up using a kit (Qiagen 74004). cDNA was generated using 11 rounds of amplification with 10 ng RNA input. […] Libraries were sequenced on either HiSeq 2000/2500 (50 base pair single read mode) or NextSeq 500 (75 base pair single read mode) with 6-12 pooled indexed libraries per lane.
Reads mapping to Olfr290 were inferred from ENSMUSG00000070459, with the rationale that this gene model included ENSMUSG00000116179 plus untranslated regions. […] Intact Olfr genes with identifiable sequences were filtered, and p-values were then re-corrected by FDR. […] Raw and processed RNA-Seq datasets generated as part of this study are available from NCBI GEO at accession GSE185415.
First, ORs activated by a set of 61 odorants at various concentrations were determined by leveraging pS6-IP-Seq. […] ORs were considered odor-responsive if enrichment values (log2FC) were positive with a false discovery rate (FDR)<0.05.
Take `C[C@]12CCC(=O)C[C@@H]1CC[C@@H]1[C@@H]2CC[C@]2(C)C=CC[C@@H]12` [androstenone]: the “ORs identified as responsive by pS6-IP-Seq” value is given as “no ORs were identified as responsive”.

Still in this test, the particulars now being: odorant at 1%; excluded from all analysis.
`CC(=O)c1ccccc1O` [2′-hydroxyacetophenone]: the “number of ORs identified as responsive, relative to the mean” value is recorded as “more than five standard deviations away from the mean”.

The same test, now with this note: odorant at 1%; responsive = log2FC>0 and FDR<0.05.
For the compound `C=C1CC/C=C(\C)CC[C@@H]2[C@@H]1CC2(C)C` [P-Caryophyllene], the “ORs identified as responsive by pS6-IP-Seq” value is given as “no ORs were identified as responsive”.
With `CSC` [dimethyl sulfide], the “ORs identified as responsive by pS6-IP-Seq” value is given as “no ORs were identified as responsive”.
The same measure, in the same setting: next, `C=C(C)C1CCC(C)C(O)C1` (single isomer, unassigned; (+)) [(+)-dihydrocarveol]: “no ORs were identified as responsive”.
The same measure, in the same setting: to `CC(C)=CCC/C(C)=C/CO` [geraniol] belongs “no ORs were identified as responsive”; to `CCC(=O)O` [propionic acid], “no ORs were identified as responsive”; to `c1ccc2[nH]ccc2c1` [indole], “no ORs were identified as responsive”.
Same read-out and setting: next, `C=C(C)C1CCC(C)C(O)C1` (single isomer, unassigned; (-)) [(−)-dihydrocarveol]: “no ORs were identified as responsive”.
